This passage reports EC50 results from patent US11623924B2, “Modulators of alpha-1 antitrypsin” (Vertex Pharmaceuticals Incorporated, priority 2018, dated 2023).

Structures are written as SMILES.

The target in one test is T1, NL20 human bronchial epithelial cells expressing human Z-AAT (Homo sapiens, UniProt P01009, E366K).
T1 construct: expressed in transfected cells; host or cells: NL20 human bronchial epithelial cells (NL20-SI line, doxycycline added)
T1 sequence (P01009 25-418 E366K): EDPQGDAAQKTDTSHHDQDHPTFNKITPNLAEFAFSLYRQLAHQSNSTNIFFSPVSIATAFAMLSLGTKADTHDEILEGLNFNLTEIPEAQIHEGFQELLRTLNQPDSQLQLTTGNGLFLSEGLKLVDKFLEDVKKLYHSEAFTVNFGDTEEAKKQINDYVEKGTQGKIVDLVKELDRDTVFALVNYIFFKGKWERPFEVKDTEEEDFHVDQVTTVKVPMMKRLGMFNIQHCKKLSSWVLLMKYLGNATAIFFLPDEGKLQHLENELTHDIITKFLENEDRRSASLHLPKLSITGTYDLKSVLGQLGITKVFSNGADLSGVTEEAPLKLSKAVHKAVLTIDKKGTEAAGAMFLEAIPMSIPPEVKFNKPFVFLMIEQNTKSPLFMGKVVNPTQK
The test can be described thus: AAT Function Assay (MSD Assay NL20-SI Cell Line). The note with it: NL20 Func. (EC50), functionally active AAT (AAT-hNE complex) in supernatant of NL20 cells expressing human Z-AAT. The format is cell-based. Put shortly: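 NL20 cells expressing Z-AAT, seeded 16,000 cells/well, received compound with doxycycline (0.1 μM final) and were incubated overnight at 37° C. Supernatants, diluted 45-fold in total, reacted with excess human neutrophil elastase; AAT-elastase complex captured on anti-AAT plates, detected with Sulfo-tagged anti-elastase by MSD electrochemiluminescence, and quantified against M-AAT standards (0.156-320 ng/mL).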
Take `CC(C)c1c(CCC(=O)O)c2cc3[nH]ncc3nc2n1-c1ccc(F)cc1` [Compound 202, 3-[4-(4-fluorophenyl)-5-isopropyl-2,4,10,11-tetrazatricyclo[7.3.0.03,7]dodeca-1,3(7),5,8,11-pentaen-6-yl]propanoic Acid]: the EC50 is more than 3 µM. Turning to `CC(C)c1c(C#N)c2cc3[nH]ncc3cc2n1-c1ccccc1` [Compound 42, 6-isopropyl-5-phenyl-1H-pyrrolo[2,3-f]indazole-7-carbonitrile], the 50% effective concentration (EC50) lay in the range of 1.16 to 3 µM.

The test is the same for the next values; noted with them: functionally active AAT (AAT-hNE complex) in supernatant of NL20 cells expressing human Z-AAT; read-out: NL20 Func. (EC50).
In the case of `Cn1cc(CCCc2c(C3CCOCC3)n(-c3ccc(F)cc3)c3cc4cn[nH]c4cc23)cn1` [Compound 144], the EC50 is less than 1.16 µM.

For `Cc1cc(-n2c(C(C)C)c(C(C)CC(=O)O)c3cc4[nH]ncc4cc32)ccc1F` (single isomer, unassigned) [Compound 28], the EC50 is less than 1.16 µM. Regarding `Cc1cc(-n2c(C(C)C)c(C3CC(C(=O)O)C3)c3cc4[nH]ncc4cc32)ccc1F` (mixture of isomers) [Compound 18], the EC50 was less than 1.16 µM. For the compound `O=C(O)[C@H]1CC[C@@H](Cc2c(C3CCOCC3)n(-c3ccc(F)c(F)c3)c3cc4cn[nH]c4cc23)CC1` (single isomer, unassigned) [Compound 73], the EC50 was less than 1.16 µM.

For `O=C(O)C1CC2(C1)CC(c1c(C3CCOCC3)n(-c3ccc(F)c(F)c3)c3cc4cn[nH]c4c(Br)c13)C2` (stereo not drawn) [Compound 134, 6-[8-bromo-5-(3,4-difluorophenyl)-6-tetrahydropyran-4-yl-1H-pyrrolo[2,3-f]indazol-7-yl]spiro[3.3]heptane-2-carboxylic Acid], the EC50 was less than 1.16 µM. With `O=C(O)C1CC(Cc2c(C3CCOCC3)n(-c3ccc(F)cc3)c3cc4cn[nH]c4cc23)C1` (racemic) [Compound 116], the EC50 was more than 3 µM. `Cc1cc(-n2c(C3CCOCC3)c([C@H]3C[C@H](C(=O)O)C3)c3cc4[nH]ncc4cc32)ccc1F` [Compound 100]: the EC50 lay in the range of 1.16 to 3 µM.

On to `CC(C)c1c(CCC(=O)N2C[C@@H](O)[C@H](O)C2)c2cc3[nH]ncc3cc2n1-c1ccc(F)cc1` [Compound 212, 1-[(3R,4R)-3,4-dihydroxypyrrolidin-1-yl]-3-[5-(4-fluorophenyl)-6-isopropyl-1H-pyrrolo[2,3-f]indazol-7-yl]propan-1-one], for which the EC50 was more than 3 µM. Turning to `O=C(O)c1ccc(C#Cc2c(C3CCOCC3)n(-c3ccc(F)cc3)c3cc4cn[nH]c4cc23)cc1` [Compound 215, 4-[2-[5-(4-fluorophenyl)-6-tetrahydropyran-4-yl-1H-pyrrolo[2,3-f]indazol-7-yl]ethynyl]benzoic Acid], the EC50 is less than 1.16 µM. Turning to `CC(C)c1c(C2CC3(CC(C(=O)O)C3)C2)c2cc3[nH]ncc3cc2n1-c1ccc(F)cc1` (racemic) [Compound 34, 6-[5-(4-fluorophenyl)-6-isopropyl-1H-pyrrolo[2,3-f]indazol-7-yl]spiro[3.3]heptane-2-carboxylic acid], the EC50 was less than 1.16 µM. `CC(C)c1c(C#N)c2cc3[nH]ncc3cc2n1-c1ccc(F)cc1` [Compound 29, 5-(4-fluorophenyl)-6-isopropyl-1H-pyrrolo[2,3-f]indazole-7-carbonitrile]: the EC50 was less than 1.16 µM.

`Cc1cc(-n2c(C3CCOCC3)c(C3CC4(CC(C(=O)O)C4)C3)c3cc4[nH]ncc4cc32)ccc1F` (racemic) [Compound 90]: the EC50 was less than 1.16 µM. For `Cc1cc(-n2c(C(C)C)c(CC3(C(=O)O)CC3)c3cc4[nH]ncc4cc32)ccc1F` [Compound 17, 1-[[5-(4-fluoro-3-methyl-phenyl)-6-isopropyl-1H-pyrrolo[2,3-f]indazol-7-yl]methyl]cyclopropanecarboxylic Acid], the EC50 was less than 1.16 µM. On the same count and under the same terms, under `Cc1cc(-n2c(C(C)C)c(C3CC4(CC(C(=O)O)C4)C3)c3c(F)c4[nH]nc(C)c4cc32)ccc1F` (racemic) [Compound 59, 6-[8-fluoro-5-(4-fluoro-3-methyl-phenyl)-6-isopropyl-3-methyl-1H-pyrrolo[2,3-f]indazol-7-yl]spiro[3.3]heptane-2-carboxylic Acid] stands less than 1.16 µM. With `O=C(O)[C@H]1CC[C@H](Cc2c(C3CCOCC3)n(-c3ccc(F)c(F)c3)c3cc4cn[nH]c4cc23)CC1` (single isomer, unassigned) [Compound 74], the EC50 was in the range of 1.16 to 3 µM. Take `[H][C@]1(C(=O)O)C[C@]2(C1)C[C@@]([H])(c1c(C3CCOCC3)n(-c3ccc(F)c(C)c3)c3cc4cn[nH]c4cc31)C2` (single isomer, unassigned) [Compound 91]: the EC50 is less than 1.16 µM. Turning to `Cc1cc(-n2c(C(C)C)c(C3CC(CC(=O)O)C3)c3cc4[nH]ncc4cc32)ccc1F` (mixture of isomers) [Compound 22], the EC50 is less than 1.16 µM. For `Cc1cc(-n2c(C(C)C)cc3c(I)c4[nH]ncc4cc32)ccc1F` [Compound 48, 5-(4-fluoro-3-methyl-phenyl)-8-iodo-6-isopropyl-1H-pyrrolo[2,3-f]indazole], the EC50 is more than 3 µM. As to `O=C(O)CCc1c(C2CCOCC2)n(-c2ccc(F)c(Cl)c2)c2cc3cn[nH]c3cc12` [Compound 82], the EC50 is more than 3 µM. With `Cc1cc(-n2c(C(C)C)c(C3CC4(CC(C(=O)O)C4)C3)c3cc4[nH]nc(C)c4cc32)ccc1F` (single isomer, unassigned) [Compound 57, 6-[5-(4-fluoro-3-methyl-phenyl)-6-isopropyl-3-methyl-1H-pyrrolo[2,3-f]indazol-7-yl]spiro[3.3]heptane-2-carboxylic acid], the EC50 lay in the range of 1.16 to 3 µM. On to `CC(C)c1c(/C=C/C(=O)O)c2cc3[nH]ncc3cc2n1-c1ccc(F)cc1` [Compound 31, (E)-3-[5-(4-fluorophenyl)-6-isopropyl-1H-pyrrolo[2,3-f]indazol-7-yl]prop-2-enoic Acid], for which the EC50 is 1.16 to 3 µM. Take `Cc1cc(-n2c(C3(C)COC3)cc3cc4[nH]ncc4cc32)ccc1F` [Compound 138, 5-(4-fluoro-3-methyl-phenyl)-6-(3-methyloxetan-3-yl)-1H-pyrrolo[2,3-f]indazole]: the EC50 was more than 3 µM. Take `COCC(C)(C)c1c(CCCN)c2cc3[nH]ncc3cc2n1-c1ccc(F)cc1` [Compound 179]: the EC50 was more than 3 µM. In the case of `O=C(O)C1CC2(C1)CC(c1c(C3CCOCC3)n(-c3ccc(F)cc3)c3cc4cn[nH]c4cc13)C2` (racemic) [Compound 108, 6-(5-(4-fluorophenyl)-6-(tetrahydro-2H-pyran-4-yl)-1,5-dihydropyrrolo[2,3-f]indazol-7-yl)spiro[3.3]heptane-2-carboxylic Acid], the EC50 lay in the range of 1.16 to 3 µM. Consider `Cc1cc(-n2c(C3CCOCC3)c(C[C@H]3CC[C@H](C(=O)O)CC3)c3cc4[nH]ncc4cc32)ccc1F` (single isomer, unassigned) [Compound 106], for which the concentration giving a half-maximal response (EC50) was less than 1.16 µM.

Turning to `Cc1cc(-n2c(C(C)C)c(CC(C)C(=O)O)c3cc4[nH]ncc4cc32)ccc1F` (single isomer, unassigned) [Compound 21], the EC50 was less than 1.16 µM. Regarding `COCC(C)(C)c1c(CCC(N)=O)c2cc3[nH]ncc3cc2n1-c1ccc(F)cc1` [Compound 183], the EC50 is more than 3 µM. The same measure, in the same setting: with `COCC(C)(C)c1c(CC2CC(C(=O)O)C2)c2cc3[nH]ncc3cc2n1-c1ccc(F)cc1` (stereo not drawn) [Compound 175] the figure was 1.16 to 3 µM; with `Cc1cc(-n2c(C(C)C)c(C3CC3C(=O)O)c3cc4[nH]ncc4cc32)ccc1F` (single isomer, unassigned) [Compound 14, 2-[5-(4-fluoro-3-methyl-phenyl)-6-isopropyl-1H-pyrrolo[2,3-f]indazol-7-yl]cyclopropanecarboxylic acid], less than 1.16 µM; with `O=C(O)C1CC(Cc2c(C3CCOCC3)n(-c3ccc(F)c(Cl)c3)c3cc4cn[nH]c4cc23)C1` (single isomer, unassigned) [Compound 81], 1.16 to 3 µM. On the same count and under the same terms, under `CS(=O)(=O)c1c(C2CCOCC2)n(-c2ccc(F)cc2)c2cc3cn[nH]c3cc12` [Compound 62, 5-(4-fluorophenyl)-7-methylsulfonyl-6-tetrahydropyran-4-yl-1H-pyrrolo[2,3-f]indazole] stands more than 3 µM; under `Cc1cc(-n2c(C(C)C)c(N3CCOCC3=O)c3cc4[nH]ncc4cc32)ccc1F` [Compound 9, 4-[5-(4-fluoro-3-methyl-phenyl)-6-isopropyl-1H-pyrrolo[2,3-f]indazol-7-yl]morpholin-3-one], more than 3 µM. Take `CC1(C(=O)O)CC(c2c(C3CCOCC3)n(-c3ccc(F)c(F)c3)c3cc4cn[nH]c4cc23)C1` (single isomer, unassigned) [Compound 70]: the EC50 was less than 1.16 µM. For `CC(C)c1c(C2CC3(CC(C(=O)O)C3)C2)c2cc3[nH]ncc3cc2n1-c1ccc(F)cc1` (single isomer, unassigned) [Compound 35, 6-[5-(4-fluorophenyl)-6-isopropyl-1H-pyrrolo[2,3-f]indazol-7-yl]spiro[3.3]heptane-2-carboxylic acid], the EC50 was less than 1.16 µM. Turning to `[2H]c1c([2H])c(-n2c(C(C)C)c(CCC(=O)O)c3cc4[nH]ncc4cc32)c([2H])c([2H])c1F` [Compound 188, 3-[6-isopropyl-5-(2,3,5,6-tetradeuterio-4-fluoro-phenyl)-1H-pyrrolo[2,3-f]indazol-7-yl]propanoic Acid], the EC50 was in the range of 1.16 to 3 µM. Take `[2H]C([2H])(Cc1c(C(C)C)n(-c2ccc(F)cc2)c2cc3cn[nH]c3cc12)C(=O)O` [Compound 170, 2,2-dideuterio-3-[5-(4-fluorophenyl)-6-isopropyl-1H-pyrrolo[2,3-f]indazol-7-yl]propanoic Acid]: the EC50 lay in the range of 1.16 to 3 µM. Take `O=C(O)C1CC2(C1)CC(c1c(C3CCOC3)n(-c3ccc(F)cc3)c3cc4cn[nH]c4cc13)C2` (racemic) [Compound 140, 6-[5-(4-fluorophenyl)-6-tetrahydrofuran-3-yl-1H-pyrrolo[2,3-f]indazol-7-yl]spiro[3.3]heptane-2-carboxylic acid]: the EC50 is more than 3 µM.

By EC50 is commonly meant the midpoint of the concentration-response curve.
